Assay results taken from ChEMBL document CHEMBL4145518, “High anticancer potency on tumor cells of dehydroabietylamine Schiff-base derivatives and a copper(II) complex” (Eur J Med Chem, 2018).
Active and inactive are the calls of the source. The rule behind the calls is not given here.

Assays:
Salmon testes DNA [1] = assay: Binding affinity to salmon sperm DNA assessed as hypochromic shift at 1.5 10^-5M by ethidium bromide staining based fluorescence assay; type: nucleic-acid assay; details: Salmonidae
HeLa = assay: Antiproliferative activity against human HeLa cells after 36 hrs by MTT assay; type: functional, cell-based
HepG2 [2] = assay: Induction of apoptosis in human HepG2 cells assessed as viable cells at 10 ug/ml after 24 hrs by Annexin V/propidium iodide staining based flow cytometry (reference value: 83.13%); type: functional; details: HepG2, 24 h, read-out: Activity
HepG2 [3] = assay: Induction of apoptosis in human HepG2 cells assessed as late apoptotic cells at 10 ug/ml after 24 hrs by Annexin V/propidium iodide staining based flow cytometry (reference value: 7.09%); type: functional
HepG2 [4] = assay: Induction of apoptosis in human HepG2 cells assessed as early apoptotic cells at 0.1 ug/ml after 24 hrs by Annexin V/propidium iodide staining based flow cytometry (reference value: 7.92%); type: functional
HepG2 [5] = assay: Induction of apoptosis in human HepG2 cells assessed as early apoptotic cells at 1 ug/ml after 24 hrs by Annexin V/propidium iodide staining based flow cytometry (reference value: 7.92%); type: functional
HepG2 [6] = assay: Induction of apoptosis in human HepG2 cells assessed as necrotic cells at 0.1 ug/ml after 24 hrs by Annexin V/propidium iodide staining based flow cytometry (reference value: 1.86%); type: functional
A549 = assay: Antiproliferative activity against human A549 cells after 36 hrs by MTT assay; type: functional, cell-based; details: A549, 36 h
HepG2 [7] = assay: Induction of apoptosis in human HepG2 cells assessed as necrotic cells at 1 ug/ml after 24 hrs by Annexin V/propidium iodide staining based flow cytometry (reference value: 1.86%); type: functional
HepG2 [8] = assay: Induction of apoptosis in human HepG2 cells assessed as late apoptotic cells at 1 ug/ml after 24 hrs by Annexin V/propidium iodide staining based flow cytometry (reference value: 7.09%); type: functional
HepG2 [9] = assay: Induction of apoptosis in human HepG2 cells assessed as viable cells at 1 ug/ml after 24 hrs by Annexin V/propidium iodide staining based flow cytometry (reference value: 83.13%); type: functional; details: HepG2, 24 h, read-out: Activity
HepG2 [10] = assay: Induction of apoptosis in human HepG2 cells assessed as late apoptotic cells at 0.1 ug/ml after 24 hrs by Annexin V/propidium iodide staining based flow cytometry (reference value: 7.09%); type: functional
HUVEC = assay: Cytotoxicity against HUVEC assessed as reduction in cell viability after 36 hrs by MTT assay; type: cell-based; details: Homo sapiens
HepG2 [11] = assay: Induction of apoptosis in human HepG2 cells assessed as viable cells at 0.1 ug/ml after 24 hrs by Annexin V/propidium iodide staining based flow cytometry (reference value: 83.13%); type: functional; details: HepG2, 24 h, read-out: Activity
Salmon testes DNA [12] = assay: Binding affinity to salmon sperm DNA assessed as DNA intercalation at 1.5 10^-5M by ethidium bromide staining based fluorescence assay; type: nucleic-acid assay; details: Salmonidae
HepG2 [13] = assay: Induction of apoptosis in human HepG2 cells assessed as necrotic cells at 10 ug/ml after 24 hrs by Annexin V/propidium iodide staining based flow cytometry (reference value: 1.86%); type: functional
HepG2 [14] = assay: Induction of apoptosis in human HepG2 cells assessed as early apoptotic cells at 10 ug/ml after 24 hrs by Annexin V/propidium iodide staining based flow cytometry (reference value: 7.92%); type: functional
HepG2 [15] = assay: Antiproliferative activity against human HepG2 cells after 36 hrs by MTT assay; type: functional, cell-based; details: HepG2, 36 h
MCF7 = assay: Antiproliferative activity against human MCF7 cells after 36 hrs by MTT assay; type: functional, cell-based; details: MCF7, 36 h
Androgen receptor = biological target: T1, Androgen receptor (Homo sapiens, UniProt P10275); assay: Binding affinity to androgen receptor (unknown origin)
T1 sequence (P10275 whole entry): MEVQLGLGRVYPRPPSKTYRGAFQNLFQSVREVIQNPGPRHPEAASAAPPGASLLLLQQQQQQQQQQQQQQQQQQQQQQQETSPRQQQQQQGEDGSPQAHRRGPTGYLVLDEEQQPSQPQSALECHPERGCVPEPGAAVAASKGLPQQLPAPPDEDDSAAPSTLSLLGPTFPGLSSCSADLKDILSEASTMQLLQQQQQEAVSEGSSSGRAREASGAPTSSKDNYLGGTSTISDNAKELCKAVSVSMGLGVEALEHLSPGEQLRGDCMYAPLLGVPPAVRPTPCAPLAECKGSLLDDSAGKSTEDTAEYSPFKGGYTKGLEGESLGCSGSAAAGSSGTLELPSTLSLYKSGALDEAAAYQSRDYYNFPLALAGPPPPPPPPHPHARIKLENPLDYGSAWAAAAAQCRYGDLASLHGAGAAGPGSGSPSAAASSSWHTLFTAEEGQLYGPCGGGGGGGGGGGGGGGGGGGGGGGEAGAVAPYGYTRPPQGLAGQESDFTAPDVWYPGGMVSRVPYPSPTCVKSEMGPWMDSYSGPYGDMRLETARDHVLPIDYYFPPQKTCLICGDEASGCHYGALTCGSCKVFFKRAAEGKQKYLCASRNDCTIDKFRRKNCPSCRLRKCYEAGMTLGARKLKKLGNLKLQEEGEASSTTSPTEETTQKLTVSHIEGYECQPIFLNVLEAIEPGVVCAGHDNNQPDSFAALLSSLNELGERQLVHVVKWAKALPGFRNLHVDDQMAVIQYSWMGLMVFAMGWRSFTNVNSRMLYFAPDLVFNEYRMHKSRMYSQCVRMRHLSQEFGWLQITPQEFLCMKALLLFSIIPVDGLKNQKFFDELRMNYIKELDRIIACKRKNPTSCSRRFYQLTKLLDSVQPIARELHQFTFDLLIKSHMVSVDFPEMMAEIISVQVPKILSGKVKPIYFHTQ

Salmon testes DNA [16] = assay: Binding affinity to salmon sperm DNA assessed as DNA intercalation at 5 10^-5M by ethidium bromide staining based fluorescence assay; type: nucleic-acid assay; details: Salmonidae
Salmon testes DNA [17] = assay: Binding affinity to salmon sperm DNA assessed as DNA intercalation by ethidium bromide staining based fluorescence assay; type: nucleic-acid assay; details: Salmonidae
[18] = Selectivity index, ratio of IC50 for HUVEC to IC50 for human HepG2 cells; type: toxicity; details: HUVEC and HepG2 cells, read-out: Ratio IC50
Salmon testes DNA [19] = assay: Binding affinity to salmon sperm DNA assessed as hypochromic shift at 5 10^-5M by ethidium bromide staining based fluorescence assay; type: nucleic-acid assay; details: Salmonidae

| Compound | IC50 (HeLa) | IC50 (A549) | IC50 (HepG2 [15]) | IC50 (MCF7) | Activity (Salmon testes DNA [16]) | viability at 10 µg/mL (HepG2 [2]) | Activity (HepG2 [3]) | Activity (HepG2 [4]) | Activity (HepG2 [5]) | Activity (HepG2 [6]) | Activity (HepG2 [7]) | Activity (HepG2 [8]) | viability at 1 µg/mL (HepG2 [9]) | Activity (HepG2 [10]) | IC50 (HUVEC) | viability at 0.1 µg/mL (HepG2 [11]) | Activity (HepG2 [13]) | Activity (HepG2 [14]) | further results |
| --- | --- | --- | --- | --- | --- | --- | --- | --- | --- | --- | --- | --- | --- | --- | --- | --- | --- | --- | --- |
| CC(C)c1ccc2c(c1)C(=O)C[C@H]1[C@@](C)(CNC(=O)c3ccccc3)CCC[C@]21C | – | – | – | – | – | – | – | – | – | – | – | – | – | – | – | – | – | – | IC50 (Androgen receptor): 83.8 µM |
| CC(C)c1ccc2c(c1)CC[C@H]1[C@](C)(C/N=C/c3cc(C(C)(C)C)cc(C(C)(C)C)c3O)CCC[C@]21C | 41 µM | 40 µM | 17.6 µM | 5.41 µM | Active | – | – | – | – | – | – | – | – | – | 41 µM | – | – | – | – |
| CCN(CC)c1ccc(/C=N/C[C@]2(C)CCC[C@]3(C)c4ccc(C(C)C)cc4CC[C@@H]23)c(O)c1 | 11.2 µM | 17 µM | 10.7 µM | 14.1 µM | Active | – | – | – | – | – | – | – | – | – | 43.1 µM | – | – | – | – |
| COc1cccc2c1C(=O)c1c(O)c3c(c(O)c1C2=O)C[C@@](O)(C(=O)CO)C[C@@H]3O[C@H]1C[C@H](N)[C@H](O)[C@H](C)O1 [DOXORUBICIN] | – | – | – | – | – | 26.3% | 3.57% | 34.49% | 47.19% | 0.62% | 0.35% | 12.6% | 39.9% | 11.74% | – | 53.1% | 0% | 70.12% | Activity (Salmon testes DNA [17]): Active |
| CC(C)c1ccc2c(c1)CC[C@H]1[C@](C)(C/N=C/c3cccc(C(C)(C)C)c3O)CCC[C@]21C | 20 µM | 41 µM | 10.5 µM | 25 µM | Active | – | – | – | – | – | – | – | – | – | 33 µM | – | – | – | – |

More lines, main results first:

| IC50 (HeLa) | IC50 (A549) | IC50 (HepG2 [15]) | IC50 (MCF7) | Activity (Salmon testes DNA [16]) | Compound | viability at 10 µg/mL (HepG2 [2]) | Activity (HepG2 [3]) | Activity (HepG2 [4]) | Activity (HepG2 [5]) | Activity (HepG2 [6]) | Activity (HepG2 [7]) | Activity (HepG2 [8]) | viability at 1 µg/mL (HepG2 [9]) | Activity (HepG2 [10]) | IC50 (HUVEC) | viability at 0.1 µg/mL (HepG2 [11]) | Activity (HepG2 [13]) | Activity (HepG2 [14]) | further results |
| --- | --- | --- | --- | --- | --- | --- | --- | --- | --- | --- | --- | --- | --- | --- | --- | --- | --- | --- | --- |
| 3.22 µM | 3.17 µM | 0.24 µM | 4.28 µM | – | CC(C)c1ccc2c(c1)CC[C@H]1[C@](C)(C/N=C/c3ncc[nH]3)CCC[C@]21C | 1.06% | 0.32% | 26.33% | 51.15% | 0.69% | 0.25% | 10.13% | 38.5% | 18.54% | 7.67 µM | 54.4% | 0% | 98.32% | Activity (Salmon testes DNA [1]): Active; Activity (Salmon testes DNA [12]): Active |
| 2.02 µM | 5.02 µM | 2.56 µM | 19.4 µM | – | CC(C)c1ccc2c(c1)CC[C@H]1[C@](C)(CN)CCC[C@]21C | 1.4% | 0.7% | 22.94% | 44.79% | 0.69% | 0.24% | 22.98% | 32% | 15.46% | 1.27 µM | 60.9% | 0% | 91.91% | – |
| 7.86 µM | 7 µM | 0.14 µM | 2.58 µM | Active | CC(C)c1ccc2c(c1)CC[C@H]1[C@](C)(C/N=C/c3c[nH]cn3)CCC[C@]21C | 0.93% | 0.29% | 33.71% | 60.49% | 0.66% | 0.23% | 6.39% | 32.9% | 12.9% | 26 µM | 52.7% | 0% | 98.78% | selectivity ratio [18]: 180; Activity (Salmon testes DNA [19]): Active |
